Reference: patent US20030091533A1, “Regulation of mononuclear phagocyte stimulation” (priority 2001, published 2003)

Tests used:
ERK½ = ERK½ MAP kinase phosphorylation immunoblot in PBM; format: cell-based, human; conditions: pretreatment before LPS 1 μg/ml; IL-9 20 ng/ml 24 hour; PD98059 1 hour
Procedure: PBM, isolated as described infra, were treated with 100 !M PD98059 (or with the same volume of DMSO as control) 1 hour before preincubation for 24 hour with medium or IL-9 (20 ng/ml). For the phosphoERK immunoblot assay (A), PBM were then stimulated by LPS (1 μg/ml) for the indicated periods of time (5 min to 20 hours) as compared to unstimulated cells (med), and processed for the detection of phosphorylated and total ERK½ as described in infra. For the oxidative burst (B), PBM were stimulated by LPS (1 μg/ml) for 20 hour and their oxidative capacity was evaluated through DCFH oxidation The results are presented in FIG. 7.
PBM were preincubated for 24 hour with medium alone (med) or IL-9, IL-4 or TGF-β1 (20 ng/ml), and stimulated by LPS (1 μg/ml) for the indicated periods of time (30 to 240 min). […]
PBM (1×10^6) were preincubated for 24 hour with medium alone or with cytokines (IL-9, IL-4 or TGF-β1 at 20 ng/ml) and stimulated from 5 min to 20 hour by 1 μg/ml LPS. […] Cell extracts (10 μg, as determined by the bicinchoninic acid-based assay) were subjected to SDS-12%PAGE, and electrotransferred onto a nitrocellulose membrane (Amersham) immunoblotted to detect and compare phosphorylated (threonine^202/tyrosine^204 residues) and total ERK½, using specific antibodies and enhanced chemiluminescence (New England Biolabs). […]

LPS-stimulated AM = test: IL-10 release by ELISA, AM; format: cell-based, human; conditions: preincubated 24 hour, LPS 20 h
Procedure: FIG. 6 depicts the effect of IL-9, IL-4 and IFN-γ on the release of IL-10 (A) and TGF-β1 (B) by LPS-stimulated PBM and AM cultured under the same conditions as described in FIG. 5 Example I. D. TGF-β1 was determined by ELISA in crude supernatants (untreated supernatants) and in ethanol-acid (acid-treated) supernatants, using a kit from Biosource for determining TGF-β1 release from its latent complexes. An ELISA kit from CLB (Amsterdam, The Netherlands) was used to determine IL-10 following the manufacturer's protocol. […] Data are means±SEM (n=3). *P<0.05 compared with unstimulated cells; **P<0.05 compared with cells preincubated with medium.
Cells (1×10^6 PBM or 0.5×10^6 AM/well) were distributed in 24-well plates (Falcon), preincubated in cRPMI for 24 hours at 37° C., 5% CO2 with cytokines (IL-9, IL-4 (20 ng/ml) and IFN-γ (200 U/ml)) and stimulated for 20 hours with 1 μg/ml LPS without removing cytokines. […] Release of TNF-α was quantified by a cytotoxicity bioassay using WEHI 164 cells clone 13, as previously described (Espevik and Nissen-Meyer, J. Immunol. Methods, 95:99-105 (1986) incorporated herein by reference), using rhTNF-α from Boehringer as a standard. IL-8, IL-10 and TGF-β1 concentrations were determined by ELISA. A kit from CLB (Amsterdam, The Netherlands) was used for IL-10 quantitation, following the manufacturer's protocol. […]

IL-9: Human IL-9 purified from SF9 insect cell cultures infected with recombinant baculovirus
LPS-induced ERK½ phosphorylation in PBM (ERK½): strongly down regulates

B1: IFN-γ: Interferon gamma, primes mononuclear phagocytes, 200 U/ml (protein, UniProt P01579 24-161, looked up)
Interferon gamma: QDPYVKEAENLKKYFNAGHSDVADNGTLFLGILKNWKEESDRKIMQSQIVSFYFKLFKNFKDDQSIQKSVETIKEDMNVKFFNSNKKKRDDFEKLTNYSVTDLNVQRKAIHELIQVMAELSPAAKTGKRKRSQMLFRG
IL-10 release by LPS-stimulated AM (LPS-stimulated AM): decreased
